# ChEMBL document CHEMBL6078612, “Novel strategies based on natural products and synthetic derivatives to overcome resistance in Mycobacterium tuberculosis” (Eur J Med Chem, 2024)
# Test system: Mycobacterium tuberculosis
# Assay: Antimycobacterial activity against multi-drug resistant Mycobacterium tuberculosis
# Format: functional
row,Molecule,MIC [µg/mL]
1,CC(=O)NC[C@H]1CN(c2ccc(N3CCOCC3)c(F)c2)C(=O)O1 [LINEZOLID],0.125
2,H-GWLDVAKKIGKAAFNVAKNFI-OH,< 0.98
